T1: K^b sol (soluble H-2K^b with murine β-2 microglobulin) (Mus musculus, UniProt P01901)
T1 construct: The cDNAs encoding K^b α1α2α3 domains (274 residues) and murine β-2 microglobulin (99 residues); made in house; host or cells: Drosophila S2/M3 cells, secreted into serum-free medium
T1 sequence (P01901 22-295): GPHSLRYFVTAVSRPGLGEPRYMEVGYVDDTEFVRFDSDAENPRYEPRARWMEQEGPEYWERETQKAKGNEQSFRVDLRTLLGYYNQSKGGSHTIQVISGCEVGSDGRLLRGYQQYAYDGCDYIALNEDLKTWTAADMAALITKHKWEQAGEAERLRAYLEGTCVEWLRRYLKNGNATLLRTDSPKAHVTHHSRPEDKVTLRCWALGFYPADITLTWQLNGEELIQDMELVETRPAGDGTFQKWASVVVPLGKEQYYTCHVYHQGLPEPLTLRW
T1 sequence (P01887 21-119 partner): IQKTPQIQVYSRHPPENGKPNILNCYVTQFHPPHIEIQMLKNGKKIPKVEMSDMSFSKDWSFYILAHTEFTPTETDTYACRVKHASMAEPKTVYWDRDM


Assays:
[1] = target: T1, K^b sol (soluble H-2K^b with murine β-2 microglobulin); assay: biochemical; assay type: binding
[2] = test system: B3/CD8 T-cell hybridoma; assay: antigen presentation assay with B3/CD8 T-cell hybridoma (IL-2 by CTLL 3H thymidine incorporation); assay type: cell-based, mouse; settings: Drosophila cells transfected with K^b/β2; peptide in culture medium or protein osmotically loaded
Description: Osmotic loading of SC2 and 3T3 cells with ovalbumin protein was carried out as described by Moore, et al., Cell 54: 777-785 (1988). The assay procedure is as follows. In a 96-well dish, 1×10^5 Drosophila cells (with or without peptide/protein loaded) or 3T3 cells were cocultured with 1×10^5 B3/CD8 T-cell hybridoma cells in 200 μl of RPMI media supplemented with 10% fetal bovine serum. After 24 hours of incubation, 100 μl of the supernatant from these cultures was added to 100 μl of RPMI containing 5,000 CTLL cells. The cells were cocultured for 24 hours at 37° C. when 1 μCi of ^3 H thymidine (Amersham) was added. After a further incubation of 15 hours at 37° C., the incorporation of radiolabel into the CTLL cells was determined by scintillation counting.
Assays conducted with murine MHC also verified that the insect cells are capable of loading peptide onto the Class I molecules. Cells expressing as few as 200-500 MHC molecules containing a particular antigen can be detected by a T-cell. […] Upon antigenic stimulation, B3/CD8 produces IL-2, measured by ^3 H thymidine incorporation in IL-2-dependenT-cell line CTLL (Gillis, et al., J. Immunol. 120: 2027 91978)). Thus, by measuring the amount of IL-2 produced, one can assay for T-cell recognition. […]

Molecule | Kd [1] | T-cell recognition (IL-2 production by B3/CD8) [2]
CC(C)C[C@H](NC(=O)CNC(=O)[C@H](CCC(N)=O)NC(=O)[C@H](Cc1ccc(O)cc1)NC(=O)[C@@H](NC(=O)[C@H](Cc1ccc(O)cc1)NC(=O)CNC(=O)[C@@H](N)CCCNC(=N)N)C(C)C)C(=O)O [VSV-8] | 3.7 nM | –
ovalbumin (protein, UniProt P01012 2-386, looked up, ovalbumin (Sigma) osmotically loaded into the cells) Ovalbumin: GSIGAASMEFCFDVFKELKVHHANENIFYCPIAIMSALAMVYLGAKDSTRTQINKVVRFDKLPGFGDSIEAQCGTSVNVHSSLRDILNQITKPNDVYSFSLASRLYAEERYPILPEYLQCVKELYRGGLEPINFQTAADQARELINSWVESQTNGIIRNVLQPSSVDSQTAMVLVNAIVFKGLWEKAFKDEDTQAMPFRVTEQESKPVQMMYQIGLFRVASMASEKMKILELPFASGTMSMLVLLPDEVSGLEQLESIINFEKLTEWTSSNVMEERKIKVYLPRMKMEEKYNLTSVLMAMGITDVFSSSANLSGISSAESLKISQAVHAAHAEINEAGREVVGSAEAGVDAASVSEEFRADHPFLFCIKHIATNAVLFFGRCVSP | – | no recognition occurred

— US6251627A (priority 1998, dated 2001)
